Data taken from paper PMC11727040, “Monophosphate Derivatives of Luteolin and Apigenin as Efficient Precursors with Improved Oral Bioavailability in Rats” (Antioxidants, 2024).
Converted amounts (≈) assume the structure as drawn. Where two headings read alike, the source gives them in different places.

Assays:
[1] = Stability in simulated gastric fluid (SGF) and simulated intestinal fluid (SIF); assay type: in vitro ADME; conditions: SGF with pepsin and SIF with pancreatin pH 6.8, 125 mg/L, 37 °C
Experimental: For the SGF solution, 5 g of pepsin was dissolved in 1 L of deionized water with the addition of hydrochloric acid to achieve a pH of 1.8. The SIF solution consisted of 6.8 g of monopotassium phosphate and 10 g of pancreatin dissolved in 1 L of deionized water, maintaining a pH of 6.8.

[2] = target: T1, Caco-2 cell apical membrane-associated alkaline phosphatase (ALP) (Homo sapiens, UniProt P09923); test: Dephosphorylation by Caco-2 cell apical membrane-associated ALP; assay type: cell-based; conditions: Caco-2 cells, HBSS, 37 °C, 120 min incubation, initial concentration 20 μM, read-out: elimination half-life (T1/2) of dephosphorylation
T1 construct: The Caco-2 cells (human colon adenocarcinoma, clone of Caco-2) were obtained from the Bioresource Collection and Research Center; endogenous in cells; host or cells: Caco-2 (human colon adenocarcinoma) cells, intact, 5 days in culture
T1 sequence (P09923 20-503 limits assumed): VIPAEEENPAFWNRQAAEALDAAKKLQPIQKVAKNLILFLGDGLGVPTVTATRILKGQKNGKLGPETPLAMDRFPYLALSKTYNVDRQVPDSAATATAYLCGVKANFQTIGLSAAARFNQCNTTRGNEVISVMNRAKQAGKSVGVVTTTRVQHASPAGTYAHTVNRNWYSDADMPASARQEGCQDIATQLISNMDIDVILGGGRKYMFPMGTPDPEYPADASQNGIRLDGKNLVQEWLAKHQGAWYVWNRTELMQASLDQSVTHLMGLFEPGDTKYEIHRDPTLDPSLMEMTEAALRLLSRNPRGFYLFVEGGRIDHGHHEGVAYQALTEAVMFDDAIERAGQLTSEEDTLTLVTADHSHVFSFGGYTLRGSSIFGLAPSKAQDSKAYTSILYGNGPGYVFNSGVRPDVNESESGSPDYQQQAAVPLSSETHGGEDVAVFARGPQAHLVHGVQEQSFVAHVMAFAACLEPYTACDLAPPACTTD
Experimental: The Caco-2 cells (human colon adenocarcinoma, clone of Caco-2) were obtained from the Bioresource Collection and Research Center, Hsinchu, Taiwan. Caco-2 cells were cultured according to previously established protocols. For the dephosphorylation study, the cells were seeded onto 6-well plates at a density of 3.0 × 10^5 cells per well in 2 mL of fresh medium. The medium was refreshed every 48 h. […] The plates were then incubated at 37 °C, and aliquots of 200 μL were collected at 15, 30, 60, and 120 min. […] The supernatants were analyzed by HPLC to quantify the relative content of LutPs to Lut and ApnPs to Apn. To assess the activity of human intestinal alkaline phosphatase (ALP), a positive control of fosphenytoin, a phenytoin phosphate prodrug, was used.
The HPLC system employed in this study consisted of the Waters Alliance 2695 separation module (Waters, Milford, MA, USA), a YMC-Pack ODS-AM C18 column (4.6 × 250 mm, 5 µm) with a guard cartridge (Hichrom 5C18, Berkshire, UK) and a Waters 2487 Dual-Absorbance Detector (Waters, Milford, MA, USA). Chromatographic separation was conducted at a temperature of 30 °C, utilizing a linear gradient mobile phase consisting of 0.1% phosphoric acid in H2O (solvent A) and 0.1% phosphoric acid in acetonitrile (solvent B). The elution gradient programs for quantifying each compound are detailed in Supplementary Materials Table S1. Luteolin and its derivatives were detected at a wavelength of 354 nm, while apigenin and its derivatives were detected at a wavelength of 270 nm, and fosphenytoin at 210 nm. The quantitation was conducted using the external standard method with calibration curves, and the quality was ensured by maintaining an R^2 value exceeding 0.99.

[3] = Dissolution study, USP apparatus II (paddle method); assay type: physicochemical; conditions: for dissolution rate in bile extract solution: bile extract solution as dissolution medium; for dissolution rate after 60 min: standard dissolution medium, 0.05 M phosphate buffer pH 6.8, 37 °C, 20 μM
Experimental: To investigate the influence of bile extract (comprising bile salts and phospholipids) on the dissolution of these compounds, bile extract solutions were prepared according to the protocol described by Makioka et al. This involved dissolving 12 g of porcine bile extract and 8.4 g of sodium bicarbonate in 1 L of deionized water, which served as the dissolution medium. After the sample was placed in the dissolution medium, 1 mL aliquots of the medium were collected at 5, 10, 20, 30, 45, and 60 min of incubation, and filtered through a 0.2 μm polyethersulfone filter (Pall Corp., New York, NY, USA). Subsequently, 500 μL of each sample was acidified with 5 μL of 2 M acetic acid and stored at −20 °C until HPLC analysis.

[4] = cited from earlier work
[5] = design: method as in doi:10.1016/j.jff.2017.05.056; conditions: rats, 20 μmol/kg (5.725 mg/kg) via gavage; cited from earlier work
[6] = Aqueous solubility, classical shake-flask method; conditions: ultrapure water
Source text: Then, the resulting supernatant (the saturated solution) was aliquoted and diluted carefully and properly to perform the quantitative analysis using HPLC.

[7] = Oral pharmacokinetics of Lut, Lut7G and LutPs in SD rats; assay type: in vivo, Sprague Dawley (SD) rats
Experimental: (§1) (Taipei, Taiwan). and housed individually. The facilities were maintained at 25 °C, at constant humidity, and a 12 h light/dark cycle with ad libitum access to food and water and acclimated for at least 7 days prior to any experiments. Rats were fasted for 24 h before the experiments, with water freely available. For the pharmacokinetic study, rats were randomly assigned to three groups for the tests (n = 4 for Lut-relevant groups; n = 4-5 for Apn-relevant groups). […] The Apn-relevant groups received Apn aqueous suspension, Apn7G aqueous suspension, or ApnPs solution. Dosages were designed as 174.7 μmol/kg for Lut and 185.02 μmol/kg for Apn, based on the human dietary supplement dosage of 500 mg/day, translated by the body surface area index as per FDA guidelines. […] Lut and Apn were quantified in biological samples after enzymatic hydrolysis of their conjugated forms. The plasma was acidified to pH 5 by adding 10 μL of 0.5 M acetate buffer. […] The mixture was fractionated using a Sep-Pak C18 cartridge (Waters, Milford, MA, USA), eluted in order with 0.01 M oxalic acid, water/methanol/0.5 M oxalic acid (88:10:2), distilled water, and 100% methanol. The methanol fraction was adjusted to a constant volume of 500 μL and filtered with a 0.22 μm membrane to remove insoluble matter, and, subsequently, the filtrate underwent UPLC-MS/MS. The levels of Lut and Apn in the plasma were quantified using a Waters ACQUITY UPLC I-Class system (Waters, Milford, MA, USA) equipped with an XEVO TQS-microTriple-Quadrupole Tandem Mass Spectrometer (Waters, Milford, MA, USA). Chromatographic separation was achieved using a Thermo Hypersil GOLD aQ C18 (50 × 2.1 mm, 1.9 μm) column (Thermo Fisher Scientific, Waltham, MA, USA). The injection volume was 3 μL. […] The temperature of the column oven was set at 40 °C. The MRM mode in negative mode was used, and the MS parameter was set as follows. The most intense precursor-to-product transitions were selected: m/z 285→133 for luteolin, and m/z 269→107 and m/z 269→41 for apigenin and genistein, respectively. The source voltage was 1500 V. The desolvation temperature was 400 °C, and the desolvation gas flow was 800 L/h. The source temperature was 150 °C. The contents of Lut and Apn were calculated by the calibration curve and the response obtained by the peak area of them against the internal standard. Details on the multiple reaction monitoring (MRM) conditions, elution gradient programs, and UPLC method validation are provided in the Supplementary Materials Tables S2 and S3. The pharmacokinetic parameters, including maximum concentration (Cmax), time to reach maximum concentration (Tmax), and area under curve (AUC), were determined using the pharmacokinetic software WinNonlin Standard Edition v1.1 (Pharsight Corp., Mountainview, CA, USA).

[8] = Oral pharmacokinetics of Apn, Apn7G and ApnPs in SD rats; assay type: in vivo, Sprague Dawley (SD) rats
Experimental: as §1

[9] = design: method as in PMID 32785007; conditions: rats, oral 10 mg/kg; read-out: maximum plasma concentration (Cmax); cited from earlier work
[10] = rat, in vivo, po, 185.02 umol/kg
[11] = rat, in vivo, po, 174.7 umol/kg

Compound: O=c1cc(-c2ccc(OP(=O)(O)O)cc2)oc2cc(O)cc(O)c12 [Apn4′P, apigenin 4′-O-phosphate]
- retained relative content after 240 min of incubation [1]: over 80%
- half-life at 20 μM [2]: 1.07 h

Compound: O=c1cc(-c2ccc(O)c(O)c2)oc2cc(O)cc(O)c12 [Lut, 3′,4′,5,7-tetrahydroxyflavone]
- dissolution rate in bile extract solution [3]: 10.2%
- dissolution rate after 60 min [3]: 3.5%
- absolute oral bioavailability [4]: 4.10%
- brain tissue concentration [5]: less than 0.1 nmol/g
- solubility [6]: 13 µg/mL (≈ 45.4 µM)
- Cmax ([7]; male, Sprague Dawley, 174.7 umol/kg, rat plasma, oral 174.7 µmol/kg, mean ± SE, read-out: aglyconic luteolin Cmax): 140 ± 194 nM
- AUC(0-t) ([7]; male, Sprague Dawley, 174.7 umol/kg, rat plasma, oral 174.7 µmol/kg, zero to 8 h, read-out: aglyconic luteolin AUC0–t): 0.635 µM·h
- Tmax ([7]; male, Sprague Dawley, 174.7 umol/kg, rat plasma, oral 174.7 µmol/kg, read-out: aglyconic luteolin Tmax): 1 h

Compound: O=c1cc(-c2ccc(OP(=O)(O)O)c(O)c2)oc2cc(O)cc(O)c12 [Lut4′P, luteolin 4′-O-phosphate]
- retained relative content after 240 min of incubation [1]: over 80%
- half-life at 20 μM [2]: 0.463 h

Compound: O=c1cc(-c2ccc(O)cc2)oc2cc(O[C@@H]3O[C@H](CO)[C@@H](O)[C@H](O)[C@H]3O)cc(O)c12 [Apn7G, apigenin 7-O-glucoside]
- Apn conjugates AUC0–t [8, 10]: 13,243.27 nM·h
- Apn conjugates Tmax [8, 10]: 2.00 h
- Lut (metabolite) conjugates AUC0–t [8, 10]: 8.78863 µM·h
- Lut (metabolite) conjugates Tmax [8, 10]: 2.00 h
- aglyconic Apn AUC0–t [8, 10]: 0.37171 µM·h
- aglyconic Apn Tmax [8, 10]: 0.5 h
- aglyconic Lut (metabolite) AUC0–t [8, 10]: 0.01854 µM·h
- aglyconic Lut (metabolite) Tmax [8, 10]: 1.00 h
- overall Apn AUC0–t [8, 10]: 13,614.98 nM·h
- overall Apn Tmax [8, 10]: 2.00 h
- overall Lut (metabolite) AUC0–t [8, 10]: 8.87017 µM·h
- overall Lut (metabolite) Tmax [8, 10]: 2.00 h

Compound: O=c1cc(-c2ccc(O)cc2)oc2cc(OP(=O)(O)O)cc(O)c12 [Apn7P, apigenin 7-O-phosphate]
- retained relative content after 240 min of incubation [1]: 76%
- half-life at 20 μM [2]: 0.73 h

Compound: O=c1cc(-c2ccc(O)c(OP(=O)(O)O)c2)oc2cc(O)cc(O)c12 [Lut3′P, luteolin 3′-O-phosphate]
- retained relative content after 240 min of incubation [1]: over 80%
- half-life at 20 μM [2]: 0.693 h

Compound: O=c1cc(-c2ccc(O)c(O)c2)oc2cc(O[C@@H]3O[C@H](CO)[C@@H](O)[C@H](O)[C@H]3O)cc(O)c12 [Lut7G, luteolin 7-O-glucoside]
- AUC0–∞ of overall Lut ([7]; rat, in vivo, po): 35.419 µM·h
- aglyconic luteolin AUC0–t [7, 11]: 2.00935 µM·h
- aglyconic luteolin Tmax [7, 11]: 1.00 h
- luteolin conjugates AUC0–t [7, 11]: 31,336.03 nM·h
- luteolin conjugates Tmax [7, 11]: 4.00 h
- overall luteolin AUC0–t [7, 11]: 33,111.44 nM·h
- overall luteolin Tmax [7, 11]: 2.00 h

Compound: O=C1NC(c2ccccc2)(c2ccccc2)C(=O)N1COP(=O)(O)O [fosphenytoin]
- half-life at 20 μM [2]: 1.67 h

Compound: O=c1cc(-c2ccc(O)cc2)oc2cc(O)cc(O)c12 [Apn, 4′,5,7-trihydroxyflavone]
- dissolution rate in bile extract solution [3]: 12.5%
- dissolution rate after 60 min [3]: 0.24%
- absolute oral bioavailability [4]: 0.71%
- solubility [6]: 1.2 µg/mL (≈ 4.44 µM)
- AUC(0-t) ([8]; male, Sprague Dawley, 185.02 umol/kg, rat plasma, oral 185.02 µmol/kg, 0 to 10 h, read-out: aglyconic Apn AUC0–t): 0.113 µM·h
- Cmax ([8]; male, Sprague Dawley, 185.02 umol/kg, rat plasma, oral 185.02 µmol/kg, mean ± SE, read-out: aglyconic Apn Cmax): 14 ± 1.27 nM
- aglyconic Apn Tmax ([8]; rat plasma, oral 185.02 µmol/kg): 0.5 h
- Cmax [9]: 80 nM

Compound: O=c1cc(-c2ccc(O)c(O)c2)oc2cc(OP(=O)(O)O)cc(O)c12 [Lut7P, luteolin 7-O-phosphate]
- retained relative content after 240 min of incubation [1]: 73%
- half-life at 20 μM [2]: 0.287 h
